From patent publication US20100323950A1, “USE OF BETA-MELANOTROPIN AS A THERAPEUTIC AGENT, EG FOR THE TREATMENT OF AIDS OR ALZHEIMER” (priority 2007, published 2010) come the findings set out here.

By % inhibition is commonly meant the relative decrease from the control value, in per cent.

For this test, the system named is drug-resistant Mycobacterium tuberculosis. As to conditions: Mycobacterium tuberculosis resistant to PAS, streptomycin, INH; peptide 10 micrograms per ml; seven days.

With `CSCC[C@H](NC(=O)[C@H](CCCNC(=N)N)NC(=O)[C@H](Cc1ccc(O)cc1)NC(=O)[C@@H]1CCCN1C(=O)CNC(=O)[C@H](CCC(=O)O)NC(=O)[C@H](CC(=O)O)NC(=O)[C@H](CCCCN)NC(=O)[C@H](CCCCN)NC(=O)[C@H](CCC(=O)O)NC(=O)[C@H](C)N)C(=O)N[C@@H](CCC(=O)O)C(=O)N[C@@H](Cc1c[nH]cn1)C(=O)N[C@@H](Cc1ccccc1)C(=O)N[C@@H](CCCNC(=N)N)C(=O)N[C@@H](Cc1c[nH]c2ccccc12)C(=O)NCC(=O)N[C@@H](CO)C(=O)N1CCC[C@H]1C(=O)N1CCC[C@H]1C(=O)N[C@@H](CCCCN)C(=O)N[C@@H](CC(=O)O)C(=O)O` [Beta MSH], the “% inhibition” value is 0.0%.
